According to patent US4661499A, “2-[(substituted)-phenoxymethyl]quinolines” (Merck Frosst Canada, Inc., priority 1985, dated 1987):

System: LTB4 formation
Assay: Rat Peritoneal Polymorphonuclear (PMN) Leukocyte Assay (leukotriene inhibitor assay)
Format: cell-based
Conditions: A-23187 10 μM
Description: For example, 2-[4-(1-hydroxyhexylphenoxymethyl)]quinoline (see Example 1) was compared to its 3-(1-hydroxyhexylphenoxymethyl) analog in the PMN (leukotriene inhibitor) assay.
Rats under ether anesthesia are injected (i.p.) with 8 ml of a suspension of sodium cascinate (6 grams in ca. 50 ml water). After 15-24 hr. the rats are sacrificed (CO2) and the cells from the peritoneal cavity are recovered by lavage with 20 ml of buffer (Eagles MEM containing 30 mM HEPES adjusted to pH 7.4 with NaOH). The cells are pelleted (350×g, 5 min.), resuspended in buffer with vigorous shaking, filtered, through lens paper, recentrifuged and finally suspended in buffer at a concentration of […]. A 500 μl aliquot of PMN suspension and test compound are preincubated for 2 minutes at 37° C., followed by the addition of 10 μM A-23187. The suspension is stirred for an additional 4 minutes then bioassayed for […] content by adding an aliquot to a second 500 μl portion of the PMN at 37° C. The LTB4 produced in the first incubation causes aggregation of the second PMN, which is measured as a change in light transmission. The size of the assay aliquot is chosen to give a submaximal transmission change (usually -70%) for the untreated control. The percentage inhibition of LTB4 formation is calculated from the ratio of transmission change in the sample to the transmission change in the compound-free control.

Row | Compound | % Inhibition of LTB4 formation (0.008 μg/ml) [%] | % Inhibition of LTB4 formation (0.04 μg/ml) [%] | % Inhibition of LTB4 formation (0.2 μg/ml) [%] | % Inhibition of LTB4 formation (1 μg/ml) [%] | % Inhibition of LTB4 formation (5 μg/ml) [%] | % Inhibition of LTB4 formation (0.0016 μg/ml) [%]
1 | CCCCCC(O)c1cccc(OCc2ccc3ccccc3n2)c1 (centres unmarked) [Example 3-Analog, reference compound] | -1 | 39 | 100 | 100 | 100 | 
2 | CCCCCC(O)c1ccc(OCc2ccc3ccccc3n2)cc1 (centres unmarked) [Example 1] | 49 | 89 | 100 | 100 | 100 | 15
